Data taken from patent EP0603240B1, “SAFENING HERBICIDAL PYRAZOLYLSULFONYLUREAS” (priority 1991, dated 1993).

Legend:
Assay type in all cases: in vivo
corn [1] = experiment: Example 19, Procedure II: Herbicide No. 1 + ERADICANE EXTRA with added antidotes
Method: (§1) Containers were filled and compacted with a fumigated silt loam top soil to a depth of about 1.3 cm from the top of the container. A first container was designated as an untreated control, a second container was designated as a herbicide control, and a third container was designated as a herbicide + antidote test container. Each of the containers was seeded with a crop species. A measured amount of herbicide dispersed or dissolved in acetone was applied to a measured quantity of soil. To this same quantity of soil treated with herbicide, there was added a measured amount of antidote dispersed or dissolved in acetone. The quantity of soil treated with the herbicide and antidote was thoroughly mixed to incorporate the herbicide and antidote in the soil uniformly. The seed bed in the third container of soil was covered with the soil treated with the herbicide and antidote and the container was leveled. For each test series, the seed beds of the first and second containers were likewise covered by soil layers. the cover layer of the first container was not treated with herbicide or antidote.
(§2) The containers were then placed on a bench in a greenhouse and sub-irrigated as required for the duration of the test. […] Plant response is measured in terms of percent injury. Antidote efficacy is indicated as the difference in plant injury by the herbicide(s) without the antidote and with the antidote.
(§3) This procedure is the same as Procedure I, but modified in the manner that after incorporation of the chemicals (herbicide and antidote) the containers with the covered seedbed were treated with an initial overhead irrigation equivalent to 0.6 cm rainfall, then subsequently sub-irrigated as required on greenhouse benches.
In the test reported in this example, the herbicidal composition was similar to that used in Example 16 in that Herbicide No. 1 was combined with EPTC (Herbicide No. 4) as a co-herbicide and the antidotes included Nos. 1, 2, 7, 13 and 15. However, in this test the EPTC was introduced as a formulation of ERADICANE (EPTC + the antidote R-25788, i.e., Antidote No. 1) at an application rate of 8.96 kg/ha. Thus, in this test two antidotes were present, viz. R-25788 and one of the auxilliary antidotes, No. 2, 13 and 15.
The test reported in this example was performed in the same manner and with the same antidotes used in Example 18, the only difference being the substitution of the commercial herbicidal product ERADICANE® EXTRA for ERADICANE®. ERADICANE EXTRA is a formulation containing both an antidote, i.e., R-29148 (Antidote No. 5 herein), and an extender, dietholate.

corn [2] = experiment: Example 22: retest of Example 21 at reduced greenhouse temperatures; conditions: Table 22
Method: as §1, §2, §3
In this example, tests were conducted as in the preceding Examples 18-20, except here the co-herbicidal component was SUTAN® PLUS, a commercial product comprising as the active herbicidal ingredient the compound butylate (Herbicide No. 10) and an antidote […] (Antidote No. 1). Again, the antidotal compounds herein were Nos. 1, 2, 7, 13 and 15. Procedure II was used.
The experiments in this example were designed as a retest of those described in Example 21 in view of the uncharacteristically poor corn safety and weed control, believed to have resulted from unseasonably high temperatures in the greenhouse. Accordingly, temperatures were reduced for these tests.

[3] = tested on: barnyardgrass (Echinochloa crusgalli); experiment: Example 8, Procedure II: Herbicide No. 1 + butachlor (No. 9) with antidotes
Method: as §1, §2, §3
(§4) In the series of greenhouse tests described below, for routine screening purposes the herbicide/antidote compositions were tested in crop/weed combinations involving corn as the crop and either or both of the weeds barnyardgrass (Echinochloa crusgalli), a monocotyledonous weed, and velvetleaf (Abutilon theophrasti), a dicotyledonous weed. In the tables below, these weeds are indicated by the symbols "BYG" and "VL", respectively.
(§5) In this test, the efficacy of the same five antidotes used in Examples 6 and 7 was investigated in compositions comprising Herbicide No. 1 and as a co-herbicide, butachlor (Herbicide No. 9), active ingredient in MACHETE® herbicide, a leading commercial rice herbicide. The test procedure used in this example was the same as that in Examples 6 and 7.

[4] = tested on: velvetleaf (Abutilon theophrasti); experiment: as above
Method: as §1, §2, §3, §4, §5

corn [5] = experiment: Example 2, Procedure II: dichloroacetamide antidotes against Herbicide No. 1; conditions: Herbicide No. 1, Table 2
Method: as §1, §2, §3
In this example, a plurality of dichloroacetamide antidotes were tested for their safening efficacy against Herbicide No. 1 in corn, using Procedure II. In this test the weed was velvetleaf; barnyardgrass was not present in this test.

corn [6] = experiment: Example 23, Procedure II: Antidote Nos. 15 and 17-21 against Herbicide No. 1, 13 days after application; conditions: Herbicide No. 1, Tables 23A and 23B
Method: as §1, §2, §3
In other greenhouse tests, using Procedure II described above, the safening efficacy of Antidote Nos. 15 and 17-21 was evaluated against Herbicide No. 1 in corn in the presence of Giant foxtail (Setaria fabergi) and Velvetleaf (Abutilon theophrasti) as representative annual monocotyledonous and dicotyledonous weeds, respectively.
Test results are shown in Tables 23A and 23B wherein the indicated plant inhibition represents the average of duplicate replications, with observations being made thirteen (13) days after application of the chemicals. Giant foxtail and Velvetleaf are represented by the symbols "GFT" and "VL", respectively. The data in Table 23A show the test results using the antidotes at 2.24 kg/ha, whereas in Table 23B, the antidotal rate was reduced to 0.56 kg/ha.

[7] = Herbicide No.1 0.56 kg/ha + ERADICANE EXTRA 8.96 kg/ha, antidote 2.24 kg/ha
[8] = Herbicide No.1 0.56 kg/ha + ERADICANE EXTRA 8.96 kg/ha, antidote 8.96 kg/ha
[9] = Herbicide No.1 1.12 kg/ha + ERADICANE EXTRA 8.96 kg/ha, antidote 2.24 kg/ha
[10] = Herbicide No.1 1.12 kg/ha + ERADICANE EXTRA 8.96 kg/ha, antidote 8.96 kg/ha
[11] = Herbicide No.1 0.56 Kg/ha + SUTAN + 8.96 Kg/ha + antidote 2.24 Kg/ha
[12] = Herbicide No.1 0.56 Kg/ha + SUTAN + 8.96 Kg/ha + antidote 8.96 Kg/ha
[13] = Herbicide No.1 1.12 Kg/ha + SUTAN + 8.96 Kg/ha + antidote 2.24 Kg/ha
[14] = Herbicide No.1 1.12 Kg/ha + SUTAN + 8.96 Kg/ha + antidote 8.96 Kg/ha
[15] = Herbicide No.1 0.14 + No.9 2.24 kg/ha + antidote 2.24 kg/ha
[16] = Herbicide No.1 0.14 + No.9 2.24 kg/ha + antidote 8.96 kg/ha
[17] = Herbicide No.1 0.56 + No.9 2.24 kg/ha + antidote 2.24 kg/ha
[18] = Herbicide No.1 0.56 + No.9 2.24 kg/ha + antidote 8.96 kg/ha

Row | SMILES | % Injury Corn (corn [1]; [7]) | % Injury Corn (corn [1]; [8]) | % Injury Corn (corn [1]; [9]) | % Injury Corn (corn [1]; [10]) | % Injury Corn (corn [2]; [11]) | % Injury Corn (corn [2]; [12]) | % Injury Corn (corn [2]; [13]) | % Injury Corn (corn [2]; [14]) | % Injury BYG [3, 15] | % Injury BYG [3, 16] | % Injury BYG [3, 17] | % Injury BYG [3, 18] | % Injury VL [4, 15] | % Injury VL [4, 16] | % Injury VL [4, 17] | % Injury VL [4, 18] | safening of corn, assessment in words (corn [5]) | corn injury (corn [1]; Herbicide No. 1 + ERADICANE EXTRA + added antidote, highest rates of antidotes and herbicides) | safening of corn, assessment in words (corn [6])
1 | O=C1OC(=O)c2cccc3cccc1c23 [compound 2] | 20% | 25% | 25% | 20% | 45% | 55% | 40% | 50% | 99% | 99% | 99% | 98% | 70% | 75% | 90% | 80% |  |  | 
2 | C=CCN(CC=C)C(=O)C(Cl)Cl [compound 1] | 35% | 15% | 35% | 25% | 45% | 60% | 50% | 55% | 99% | 99% | 98% | 99% | 70% | 70% | 85% | 80% |  |  | 
3 | O=C(C(Cl)Cl)N1CCOC12CCCCC2 [compound 7] | 15% | 20% | 25% | 25% | 45% | 50% | 65% | 50% | 97% | 99% | 99% | 99% | 70% | 65% | 75% | 65% |  |  | 
4 | CC1(C)OC(c2ccco2)CN1C(=O)C(Cl)Cl (stereo not shown) [Antidote No. 15, Oxazolidine, 3-(dichloroacetyl)-5-(2-furanyl)-2,2-dimethyl] |  |  |  |  |  |  |  |  |  |  |  |  |  |  |  |  | most safening and commercial-level protection for corn, at all ratios tested | 25% | greatly safened corn against the herbicide at all test rates
5 | CC1(C(Cl)Cl)OCCO1 [compound 13] | 25% | 15% | 20% | 15% | 70% | 60% | 75% | 60% | 99% | 99% | 99% | 100% | 75% | 80% | 85% | 85% |  |  | 
